Data published in patent US12435087B2, “Modulators of DCN-1 and methods of use thereof” (Cellarity, Inc., priority 2023, dated 2025).

Legend:
DCN1 protein = DCN1 protein (Homo sapiens (Human), UniProt Q96GG9); assay: Intact protein MS analysis with the RapidFire-TOF system (covalent adduct formation); type: binding; conditions: 400 nM DCN1, incubated at room temperature for 3 hours
How it was run: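 Tag-free His-TEV-DCN1 expressed in E. coli at 400 nM in 25 mM Tris-HCl, 200 mM NaCl, 1 mM DTT, incubated with 11 compound concentrations at room temperature for 3 h unless otherwise specified. Quenched with 0.2% formic acid; intact-protein RapidFire Q-TOF MS, deconvoluted to detect parent and compound-adduct masses.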

[1] = biological target: DCN1 (DCUND1) protein PONY domain (Homo sapiens (Human), UniProt Q96GG9); assay: Off-rate measurement of reversible covalent molecules (jump dilution TR-FRET with Cy5 probe); conditions: binding mode from off-rate measurement
Chain of DCN1 (DCUND1) protein PONY domain (Q96GG9 60-248): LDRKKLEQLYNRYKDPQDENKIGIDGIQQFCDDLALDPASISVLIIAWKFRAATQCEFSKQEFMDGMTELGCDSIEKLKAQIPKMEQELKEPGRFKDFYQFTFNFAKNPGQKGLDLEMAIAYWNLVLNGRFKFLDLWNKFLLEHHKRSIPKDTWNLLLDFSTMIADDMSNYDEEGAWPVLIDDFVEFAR
Experimental: A TR-FRET assay was performed to classify the compounds as an irreversible covalent binder, a reversible covalent binder or a reversible binder.
An assay to measure the off-rate of reversible covalent molecules was developed. A typical covalent compound is assumed to stay bound to a protein for at least the life of that protein in the cell. In reality, there is a range of how long a covalent compounds remains bound before a reverse reaction takes place. Thus, some covalent bonds can be labeled as reversible as their reverse reaction takes place in a measurable amount of time under physiological conditions. The assay capitalizes on the range of covalent binders by using a high affinity covalent binder as a probe to displace the more reversible binders in an adaptation of the jump dilution method.
In this version of the jump dilution method, the increase in covalent probe binding over time was measured through a TR-FRET reaction between the covalent probe and the biotinylated target protein.
The recombinant form of the DCN1 (DCUND1) protein PONY domain was produced using an E. coli expression system at Viva Biotech (China). The DCN1 protein was biotinylated (EZ sulfo-NHS-LC-biotin; Thermofisher) for labeling with streptavidin terbium (Tb) cryptate in the reaction. This biotinylated protein was used in two forms of the TR-FRET assay as described below.
The off-rate measurement is executed in two steps based on the jump dilution method. […] The greatest dilution allowed within the constraints of the assay was chosen. These factors allow a competitive advantage for the covalent probe to replace the test compound when that compound releases from the target protein. The actual measure is the rate of increased TR-FRET signal as the covalent probe replaces the test compound over time. […] The resulting time dependent curve of the TR-FRET signal is fit to the following equation: Y=Y0+(Plateau−Y0)*(1−exp(−K*x))
K is the rate constant (1/unit of time). The residence time is defined as the inverse of K, the rate constant. The half-life is calculated as ln(2)/K.

Chain of DCN1 protein (Q96GG9 whole entry): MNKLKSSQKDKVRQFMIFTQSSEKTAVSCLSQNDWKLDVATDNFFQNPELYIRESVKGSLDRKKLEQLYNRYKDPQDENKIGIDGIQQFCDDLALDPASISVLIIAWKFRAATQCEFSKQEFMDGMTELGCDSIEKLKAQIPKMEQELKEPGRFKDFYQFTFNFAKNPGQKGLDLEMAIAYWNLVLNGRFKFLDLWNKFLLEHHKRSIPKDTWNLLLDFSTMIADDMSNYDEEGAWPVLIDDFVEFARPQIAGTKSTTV

Structure (SMILES)	Emax (DCN1 protein)	Category [1]
C/C=C(\CN1CCN(C2COC2)CC1)C(=O)Nc1cccc([C@@H]2c3cnn(-c4ccccc4)c3N(CC)C(=O)[C@H]2NC(=O)c2csc(C(F)(F)F)n2)c1 [Compound I-234, N-((4R,5S)-7-ethyl-4-(3-((E)-2-((4-(oxetan-3-yl)piperazin-1-yl)methyl)but-2-enamido)phenyl)-6-oxo-1-phenyl-4,5,6,7-tetrahydro-1H-pyrazolo[3,4-b]pyridin-5-yl)-2-(trifluoromethyl)thiazole-4-carboxamide]	80 to 100%	irreversible
C=C(CN1CCOCC1)C(=O)Nc1cccc([C@@H]2c3c(C)nn(-c4ccccc4)c3N(CC)C(=O)[C@H]2NC(=O)c2cccc(C(F)(F)F)c2)c1 [Compound I-2, N-((4R,5S)-7-ethyl-3-methyl-4-(3-(2-(morpholinomethyl)acrylamido)phenyl)-6-oxo-1-phenyl-4,5,6,7-tetrahydro-1H-pyrazolo[3,4-b]pyridin-5-yl)-3-(trifluoromethyl)benzamide]	80 to 100%	irreversible
